{"source": "patent US20240270762A1", "about": "“PENICILLIN-BINDING PROTEIN INHIBITORS” (priority 2021, published 2024)", "key": {"[1]": {"molecular_target": "T1, PBP3 from Pseudomonas aeruginosa (PAO1) (Pseudomonas aeruginosa, UniProt G3XD46)", "T1 construct": "made in house", "T1 sequence (G3XD46 whole entry)": "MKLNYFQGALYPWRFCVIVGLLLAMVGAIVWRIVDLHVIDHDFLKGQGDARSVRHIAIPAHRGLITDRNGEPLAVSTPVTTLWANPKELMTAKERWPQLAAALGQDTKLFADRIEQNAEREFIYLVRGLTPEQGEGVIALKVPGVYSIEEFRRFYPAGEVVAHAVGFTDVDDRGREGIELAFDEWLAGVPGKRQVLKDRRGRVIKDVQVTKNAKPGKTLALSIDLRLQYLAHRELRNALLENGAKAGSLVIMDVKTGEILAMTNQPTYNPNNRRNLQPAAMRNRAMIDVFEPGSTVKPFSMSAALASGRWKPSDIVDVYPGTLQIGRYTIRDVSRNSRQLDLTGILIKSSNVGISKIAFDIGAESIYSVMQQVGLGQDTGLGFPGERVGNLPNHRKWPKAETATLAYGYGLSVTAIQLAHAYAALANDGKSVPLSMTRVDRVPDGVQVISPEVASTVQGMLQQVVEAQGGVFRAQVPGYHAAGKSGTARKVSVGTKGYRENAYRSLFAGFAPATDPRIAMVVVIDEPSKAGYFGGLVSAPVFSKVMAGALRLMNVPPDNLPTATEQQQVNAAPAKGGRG", "experiment": "Bocillin-FL fluorescence polarization competition binding, P. aeruginosa PBP3", "conditions": "Binding affinity to P. aeruginosa PBP3; fluorescence polarization competition binding assay using Bocillin-FL; read-out: P. aeruginosa PBP3 Potency", "method_in_brief": "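Purified PBP was preincubated with inhibitor (E. coli PBP3 1.5 μM, 30 min; P. aeruginosa PBP3 0.75 μM, A. baumannii PBP3 0.2 μM and PBP1a 1 μM, 15 min), then Bocillin-FL (0.1 μM; 0.05 μM for PBP1a) added and FP read up to 60 min. EC50 = 50% loss of bound probe.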"}, "A. baumannii ATCC 17978": {"test_system": "A. baumannii ATCC 17978", "experiment": "microbe, parasite or virus in culture", "assay_type": "cell-based", "conditions": "Acinetobacter baumannii, ATCC17978, read-out: MIC, A. baumannii ATCC 17978"}, "A. baumannii ATCC 19606": {"test_system": "A. baumannii ATCC 19606", "experiment": "microbe, parasite or virus in culture", "assay_type": "cell-based", "conditions": "Acinetobacter baumannii, ATCC19606, read-out: MIC, A. baumannii ATCC 19606"}, "P. aeruginosa ATCC 35151": {"test_system": "P. aeruginosa ATCC 35151", "experiment": "microbe, parasite or virus in culture", "assay_type": "cell-based", "conditions": "Pseudomonas aeruginosa, ATCC35151, read-out: Minimum inhibitory concentration, P. aeruginosa ATCC 35151"}, "P. aeruginosa CDC-0095": {"test_system": "P. aeruginosa CDC-0095", "experiment": "microbe, parasite or virus in culture", "assay_type": "cell-based", "conditions": "Pseudomonas aeruginosa, CDC0095, read-out: Minimum inhibitory concentration, P. aeruginosa CDC-0095"}, "A. baumannii 1258916": {"test_system": "A. baumannii 1258916", "experiment": "microbe, parasite or virus in culture", "assay_type": "cell-based, Acinetobacter baumannii", "conditions": "Acinetobacter baumannii, 1258916, read-out: MIC, A. baumannii 1258916"}, "A. baumannii CDC-0033": {"test_system": "A. baumannii CDC-0033", "experiment": "microbe, parasite or virus in culture", "assay_type": "cell-based", "conditions": "Acinetobacter baumannii, CDC0033, read-out: MIC, A. baumannii CDC-0033"}, "A. baumannii CDC-0036": {"test_system": "A. baumannii CDC-0036", "experiment": "microbe, parasite or virus in culture", "assay_type": "cell-based", "conditions": "Acinetobacter baumannii, CDC0036, read-out: MIC, A. baumannii CDC-0036"}, "A. baumannii CDC-0083": {"test_system": "A. baumannii CDC-0083", "experiment": "microbe, parasite or virus in culture", "assay_type": "cell-based", "conditions": "Acinetobacter baumannii, CDC0083, read-out: MIC, A. baumannii CDC-0083"}, "P. aeruginosa CDC-0110": {"test_system": "P. aeruginosa CDC-0110", "experiment": "microbe, parasite or virus in culture", "assay_type": "cell-based", "conditions": "Pseudomonas aeruginosa, CDC0110, read-out: Minimum inhibitory concentration, P. aeruginosa CDC-0110"}, "[2]": {"test_system": "N. gonorrhoeae ATCC 49226", "experiment": "Liquid broth MIC in Fastidious broth", "conditions": "Neisseria gonorrhoeae, ATCC49226, read-out: Minimum Inhibitory Concentration, ATCC 49226"}, "N. gonorrhoeae MS11": {"test_system": "N. gonorrhoeae MS11", "experiment": "Liquid broth MIC in Fastidious broth", "conditions": "Neisseria gonorrhoeae, MS11, read-out: Minimum Inhibitory Concentration, MS11", "method": "Additional antibacterial testing of the series was performed in 8 reference strains of N. gonorrhoeae (ATCC 49226, FA1090, MS 11, WHO G, WHO L, WHO M, WHO K, WHO X, WHO Z, WHO Q, CDC-0197). ATCC 49226, FA1090, MS11, WHO G, WHO L, and WHO M produce wild type or wild-type like PBP2. WHO K, WHO X, WHO Z, WHO Q, and CDC-0197 produce mosaic PBP2. Liquid broth-based assays were used for antibacterial testing of PBP inhibitors in Neisseria gonorrhoeae. Briefly, cryo-preserved bacterial cultures of clinical strains were streaked for isolation on Chocolate Agar (72 g/L (2×) GC Agar Base (BD #228950) and 2% (2×) Hemoglobin was autoclaved at 121° C. for 20 minutes to sterilize. Once cooled to ˜50° C. the 2×GC Agar Base and 2× Hemoglobin solutions are combined and 1% IsoVitaleX Enrichment (BD #211876) was added to the solution). Strains were incubated at 36° C. and 5% CO2 to allow growth of colonies, 24 hours before inoculum preparation. 2-fold serial dilutions of test compounds were conducted in a 96 well plate with a final volume of 75 μL per well at 2-fold the final desired concentration in Fastidious broth (Remel #R07664). For preparation of assay inoculum, a direct suspension was prepared by aseptically swabbing 10-15 colonies from agar plates into culture tubes containing 2 mL of fresh sterile saline. After the dilution plates were set up, direct suspensions were then diluted in a cuvette containing sterile saline and the optical density was measured at 600 nm. Inocula were diluted such that 75 μL of this culture in Fastidious broth results in a starting bacterial concentration of 5×10^5 CFU/mL when added to the dilution plates. The plates were incubated for ˜24 hours at 36° C. and 5% CO2."}, "N. gonorrhoeae WHO M": {"test_system": "N. gonorrhoeae WHO M", "experiment": "Liquid broth MIC in Fastidious broth", "conditions": "Neisseria gonorrhoeae, read-out: Minimum Inhibitory Concentration, WHO M", "method": "Liquid broth-based assays were used for antibacterial testing of PBP inhibitors in Neisseria gonorrhoeae. Briefly, cryo-preserved bacterial cultures of clinical strains were streaked for isolation on Chocolate Agar (72 g/L (2×) GC Agar Base (BD #228950) and 2% (2×) Hemoglobin was autoclaved at 121° C. for 20 minutes to sterilize. Once cooled to ˜50° C. the 2×GC Agar Base and 2× Hemoglobin solutions are combined and 1% IsoVitaleX Enrichment (BD #211876) was added to the solution). Strains were incubated at 36° C. and 5% CO2 to allow growth of colonies, 24 hours before inoculum preparation. 2-fold serial dilutions of test compounds were conducted in a 96 well plate with a final volume of 75 μL per well at 2-fold the final desired concentration in Fastidious broth (Remel #R07664). For preparation of assay inoculum, a direct suspension was prepared by aseptically swabbing 10-15 colonies from agar plates into culture tubes containing 2 mL of fresh sterile saline. After the dilution plates were set up, direct suspensions were then diluted in a cuvette containing sterile saline and the optical density was measured at 600 nm. Inocula were diluted such that 75 μL of this culture in Fastidious broth results in a starting bacterial concentration of 5×10^5 CFU/mL when added to the dilution plates. The plates were incubated for ˜24 hours at 36° C. and 5% CO2."}, "N. gonorrhoeae WHO X": {"test_system": "N. gonorrhoeae WHO X", "experiment": "Liquid broth MIC in Fastidious broth", "conditions": "Neisseria gonorrhoeae, read-out: Minimum Inhibitory Concentration, WHO X"}, "N. gonorrhoeae CDC-0197": {"test_system": "N. gonorrhoeae CDC-0197", "experiment": "Liquid broth MIC in Fastidious broth", "conditions": "Neisseria gonorrhoeae, CDC0197, read-out: Minimum Inhibitory Concentration, CDC-0197", "method": "ATCC 49226, FA1090, MS11, WHO G, WHO L, and WHO M produce wild type or wild-type like PBP2. WHO K, WHO X, WHO Z, WHO Q, and CDC-0197 produce mosaic PBP2. Liquid broth-based assays were used for antibacterial testing of PBP inhibitors in Neisseria gonorrhoeae. Briefly, cryo-preserved bacterial cultures of clinical strains were streaked for isolation on Chocolate Agar (72 g/L (2×) GC Agar Base (BD #228950) and 2% (2×) Hemoglobin was autoclaved at 121° C. for 20 minutes to sterilize. Once cooled to ˜50° C. the 2×GC Agar Base and 2× Hemoglobin solutions are combined and 1% IsoVitaleX Enrichment (BD #211876) was added to the solution). Strains were incubated at 36° C. and 5% CO2 to allow growth of colonies, 24 hours before inoculum preparation. 2-fold serial dilutions of test compounds were conducted in a 96 well plate with a final volume of 75 μL per well at 2-fold the final desired concentration in Fastidious broth (Remel #R07664). For preparation of assay inoculum, a direct suspension was prepared by aseptically swabbing 10-15 colonies from agar plates into culture tubes containing 2 mL of fresh sterile saline. After the dilution plates were set up, direct suspensions were then diluted in a cuvette containing sterile saline and the optical density was measured at 600 nm. Inocula were diluted such that 75 μL of this culture in Fastidious broth results in a starting bacterial concentration of 5×10^5 CFU/mL when added to the dilution plates. The plates were incubated for ˜24 hours at 36° C. and 5% CO2."}}, "note": "pIC50: −log10 of the molar value.", "data": [{"compound": "O=C(NCCCN1CCN(C(=O)NC(C(=O)N[C@H]2Cc3ccc(F)c(C(=O)O)c3OB2O)c2cc(F)c(O)c(O)c2Cl)C1=O)Nc1cccnc1", "note": "(stereo partly drawn) [Example 259, (3R)-3-(2-(2-chloro-5-fluoro-3,4-dihydroxyphenyl)-2-(2-oxo-3-(3-(3-(pyridin-3-yl)ureido)propyl)imidazolidine-1-carboxamido)acetamido)-7-fluoro-2-hydroxy-3,4-dihydro-2H-benzo[e][1,2]oxaborinine-8-carboxylic acid]", "values": [{"measurement": "pIC50", "setting": "[1]", "value": "> 5.00"}, {"measurement": "MIC", "setting": "A. baumannii ATCC 17978", "value": "< 1", "unit": "µg/mL"}, {"measurement": "MIC", "setting": "A. baumannii ATCC 19606", "value": "< 1", "unit": "µg/mL"}, {"measurement": "MIC", "setting": "P. aeruginosa ATCC 35151", "value": "< 1", "unit": "µg/mL"}, {"measurement": "MIC", "setting": "P. aeruginosa CDC-0095", "value": "2 to 4", "unit": "µg/mL"}, {"measurement": "MIC", "setting": "A. baumannii 1258916", "value": "< 1", "unit": "µg/mL"}, {"measurement": "MIC", "setting": "A. baumannii CDC-0033", "value": "2 to 4", "unit": "µg/mL"}, {"measurement": "MIC", "setting": "A. baumannii CDC-0036", "value": "< 1", "unit": "µg/mL"}, {"measurement": "MIC", "setting": "A. baumannii CDC-0083", "value": "< 1", "unit": "µg/mL"}, {"measurement": "MIC", "setting": "P. aeruginosa CDC-0110", "value": "< 1", "unit": "µg/mL"}, {"measurement": "MIC", "setting": "[2]", "value": "16 to 32", "unit": "µg/mL"}, {"measurement": "MIC", "setting": "N. gonorrhoeae MS11", "value": "16 to 32", "unit": "µg/mL"}, {"measurement": "MIC", "setting": "N. gonorrhoeae WHO M", "value": "4 to 8", "unit": "µg/mL"}, {"measurement": "MIC", "setting": "N. gonorrhoeae WHO X", "value": "> 64", "unit": "µg/mL"}, {"measurement": "MIC", "setting": "N. gonorrhoeae CDC-0197", "value": "16 to 32", "unit": "µg/mL"}]}, {"compound": "O=C(NCCS(=O)(=O)N1CCN(C(=O)NC(C(=O)N[C@H]2Cc3ccc(F)c(C(=O)O)c3OB2O)c2cc(F)c(O)c(O)c2Cl)C1=O)c1ccccc1", "note": "(stereo partly drawn) [Example 260, (3R)-3-(2-(3-((2-benzamidoethyl)sulfonyl)-2-oxoimidazolidine-1-carboxamido)-2-(2-chloro-5-fluoro-3,4-dihydroxyphenyl)acetamido)-7-fluoro-2-hydroxy-3,4-dihydro-2H-benzo[e][1,2]oxaborinine-8-carboxylic acid]", "values": [{"measurement": "pIC50", "setting": "[1]", "value": "> 5.00"}, {"measurement": "MIC", "setting": "A. baumannii ATCC 17978", "value": "< 1", "unit": "µg/mL"}, {"measurement": "MIC", "setting": "A. baumannii ATCC 19606", "value": "< 1", "unit": "µg/mL"}, {"measurement": "MIC", "setting": "P. aeruginosa ATCC 35151", "value": "< 1", "unit": "µg/mL"}, {"measurement": "MIC", "setting": "P. aeruginosa CDC-0095", "value": "2 to 4", "unit": "µg/mL"}, {"measurement": "MIC", "setting": "A. baumannii 1258916", "value": "< 1", "unit": "µg/mL"}, {"measurement": "MIC", "setting": "A. baumannii CDC-0033", "value": "2 to 4", "unit": "µg/mL"}, {"measurement": "MIC", "setting": "A. baumannii CDC-0036", "value": "2 to 4", "unit": "µg/mL"}, {"measurement": "MIC", "setting": "A. baumannii CDC-0083", "value": "< 1", "unit": "µg/mL"}, {"measurement": "MIC", "setting": "P. aeruginosa CDC-0110", "value": "2 to 4", "unit": "µg/mL"}, {"measurement": "MIC", "setting": "[2]", "value": "16 to 32", "unit": "µg/mL"}, {"measurement": "MIC", "setting": "N. gonorrhoeae MS11", "value": "16 to 32", "unit": "µg/mL"}, {"measurement": "MIC", "setting": "N. gonorrhoeae WHO M", "value": "16 to 32", "unit": "µg/mL"}, {"measurement": "MIC", "setting": "N. gonorrhoeae WHO X", "value": "> 64", "unit": "µg/mL"}, {"measurement": "MIC", "setting": "N. gonorrhoeae CDC-0197", "value": "16 to 32", "unit": "µg/mL"}]}, {"compound": "O=C(NCCS(=O)(=O)N1CCN(C(=O)NC(C(=O)N[C@H]2Cc3ccc(F)c(C(=O)O)c3OB2O)c2cc(F)c(O)c(O)c2Cl)C1=O)c1cccc(O)c1", "note": "(stereo partly drawn) [Example 261, (3R)-3-(2-(2-chloro-5-fluoro-3,4-dihydroxyphenyl)-2-(3-((2-(3-hydroxybenzamido)ethyl)sulfonyl)-2-oxoimidazolidine-1-carboxamido)acetamido)-7-fluoro-2-hydroxy-3,4-dihydro-2H-benzo[e][1,2]oxaborinine-8-carboxylic acid]", "values": [{"measurement": "pIC50", "setting": "[1]", "value": "> 5.00"}, {"measurement": "MIC", "setting": "A. baumannii ATCC 17978", "value": "< 1", "unit": "µg/mL"}, {"measurement": "MIC", "setting": "A. baumannii ATCC 19606", "value": "< 1", "unit": "µg/mL"}, {"measurement": "MIC", "setting": "P. aeruginosa ATCC 35151", "value": "< 1", "unit": "µg/mL"}, {"measurement": "MIC", "setting": "P. aeruginosa CDC-0095", "value": "2 to 4", "unit": "µg/mL"}, {"measurement": "MIC", "setting": "A. baumannii 1258916", "value": "< 1", "unit": "µg/mL"}, {"measurement": "MIC", "setting": "A. baumannii CDC-0033", "value": "2 to 4", "unit": "µg/mL"}, {"measurement": "MIC", "setting": "A. baumannii CDC-0036", "value": "2 to 4", "unit": "µg/mL"}, {"measurement": "MIC", "setting": "A. baumannii CDC-0083", "value": "< 1", "unit": "µg/mL"}, {"measurement": "MIC", "setting": "P. aeruginosa CDC-0110", "value": "2 to 4", "unit": "µg/mL"}, {"measurement": "MIC", "setting": "[2]", "value": "16 to 32", "unit": "µg/mL"}, {"measurement": "MIC", "setting": "N. gonorrhoeae MS11", "value": "16 to 32", "unit": "µg/mL"}, {"measurement": "MIC", "setting": "N. gonorrhoeae WHO M", "value": "4 to 8", "unit": "µg/mL"}, {"measurement": "MIC", "setting": "N. gonorrhoeae WHO X", "value": "> 64", "unit": "µg/mL"}, {"measurement": "MIC", "setting": "N. gonorrhoeae CDC-0197", "value": "16 to 32", "unit": "µg/mL"}]}, {"compound": "O=C(NCCS(=O)(=O)N1CCN(C(=O)NC(C(=O)N[C@H]2Cc3ccc(F)c(C(=O)O)c3OB2O)c2cc(F)c(O)c(O)c2Cl)C1=O)c1cccnc1", "note": "(stereo partly drawn) [Example 262, (3R)-3-(2-(2-chloro-5-fluoro-3,4-dihydroxyphenyl)-2-(3-((2-(nicotinamido)ethyl)sulfonyl)-2-oxoimidazolidine-1-carboxamido)acetamido)-7-fluoro-2-hydroxy-3,4-dihydro-2H-benzo[e][1,2]oxaborinine-8-carboxylic acid]", "values": [{"measurement": "pIC50", "setting": "[1]", "value": "> 5.00"}, {"measurement": "MIC", "setting": "A. baumannii ATCC 17978", "value": "< 1", "unit": "µg/mL"}, {"measurement": "MIC", "setting": "A. baumannii ATCC 19606", "value": "< 1", "unit": "µg/mL"}, {"measurement": "MIC", "setting": "P. aeruginosa ATCC 35151", "value": "< 1", "unit": "µg/mL"}, {"measurement": "MIC", "setting": "P. aeruginosa CDC-0095", "value": "2 to 4", "unit": "µg/mL"}, {"measurement": "MIC", "setting": "A. baumannii 1258916", "value": "< 1", "unit": "µg/mL"}, {"measurement": "MIC", "setting": "A. baumannii CDC-0033", "value": "2 to 4", "unit": "µg/mL"}, {"measurement": "MIC", "setting": "A. baumannii CDC-0036", "value": "< 1", "unit": "µg/mL"}, {"measurement": "MIC", "setting": "A. baumannii CDC-0083", "value": "< 1", "unit": "µg/mL"}, {"measurement": "MIC", "setting": "P. aeruginosa CDC-0110", "value": "< 1", "unit": "µg/mL"}, {"measurement": "MIC", "setting": "[2]", "value": "16 to 32", "unit": "µg/mL"}, {"measurement": "MIC", "setting": "N. gonorrhoeae MS11", "value": "16 to 32", "unit": "µg/mL"}, {"measurement": "MIC", "setting": "N. gonorrhoeae WHO M", "value": "16 to 32", "unit": "µg/mL"}, {"measurement": "MIC", "setting": "N. gonorrhoeae WHO X", "value": "> 64", "unit": "µg/mL"}, {"measurement": "MIC", "setting": "N. gonorrhoeae CDC-0197", "value": "16 to 32", "unit": "µg/mL"}]}]}
